Experimental data: publication PMC5510868 (PLoS ONE, 2017)
“Also recorded” adds a separate entry of the source. Where two headings read alike, the source gives them in different places.

Key:
[1] = Serum metabolite concentrations and parent compound/metabolite ratios at baseline and in the third trimester (TDM, linear mixed model); conditions: for Change from baseline conc., Estimate (parent compound or metabolite) / Parent compound / metabolite ratio (PMR), change from baseline, estimate: baseline to third trimester (gestational week 34); for Baseline conc., Estimate (parent compound or metabolite) / Parent compound / metabolite ratio (PMR), baseline estimate: day 0 (non-pregnant); for Baseline conc., Estimate (parent compound or metabolite) / Loge serum concentration, Intercept estimate (parent compound or metabolite): only analyses with metabolite data; for Baseline conc., Estimate (parent compound or metabolite): dose-adjusted to DDD; for Loge serum concentration, Intercept estimate (parent compound or metabolite) / Loge serum concentration, Change per gestational week estimate (parent compound or metabolite): loge-transformed; for Loge serum concentration, Intercept estimate (parent compound or metabolite): baseline (day 0 of pregnancy); for Loge serum concentration, Change per gestational week estimate (parent compound or metabolite) / Loge PMR, Change per gestational week estimate: per week of pregnancy; for Change of parent compound or metabolite serum concentration in pregnancy (in words): analyses with metabolite data (Table 3); for Loge PMR, Intercept estimate / Loge PMR, Change per gestational week estimate: loge-transformed parent compound/metabolite ratio; for Loge PMR, Intercept estimate: baseline; for Parent compound / metabolite ratio (PMR), third trimester estimate: gestational week 34; for Parent compound / metabolite ratio in mid third trimester lower than baseline: value printed as size of the decline
Method: (§1) Quantification of the drug concentrations was performed with liquid chromatography-mass spectrometry/tandem mass spectrometry (LC-MS/LC-MS/MS). […] In brief, the drugs were extracted from serum by liquid-liquid extraction, using a mixture of hexane, acetonitrile and/or butanol, or dichloromethane and isopropanol. Thereafter, the analytes were separated on C18 columns using methanol, acetonitrile, formic acid or ammonium acetate as mobile phases, and quantified on LC-MS or LC-MS-MS systems. Calibration curves were constructed for each assay with drug-free human serum by the addition of varying concentrations of the antidepressants and their respective metabolites.
(§2) Serum concentrations in ng/mL were divided by the daily dose used by the person at the time of sampling, providing a serum concentration/dose ratio, and then multiplied by the defined daily dose (DDD), which is the assumed average maintenance dose per day for that drug used for its main indication in adults [28]. […] All concentrations presented and discussed in this article, including tables and figures, are dose-adjusted to the DDD of the drug.
(§3) For drugs where both the parent drug and the metabolite were measured, parent drug/metabolite concentration ratios during pregnancy were compared to baseline values as described above; ratios were loge-transformed and fitted into a linear mixed model, estimating the baseline ratios and the effect of each gestational week.
(§4) All model parameters, including variance components, were estimated by the method of maximum likelihood using STATA 13 command “mixed”. […] P values less than 0.05 were considered statistically significant.

[2] = cited from earlier work
[3] = in vivo
Method: as §1, §2, §3, §4

[4] = Dose-adjusted serum antidepressant concentrations across pregnancy compared to the women's own baseline (routine TDM, LC-MS, linear mixed model); format: in vivo, human; conditions: for Change of serum concentration in pregnancy compared to baseline (in words): fluoxetine and venlafaxine = active moiety; for Serum concentration in pregnancy as share of pre-pregnancy levels: drop to about this share of pre-pregnancy levels; for Serum concentration in third trimester lower than baseline (reduction): mid third trimester (gestational week 34) vs baseline, value given as size of the reduction
Source text: After obtaining approval from the Regional Committee for Medical and Health Research Ethics in Mid Norway, the Norwegian Centre for Research Data (Data Protection Official), the Norwegian Directorate of Health and the Medical Birth Registry of Norway (MBRN) publication council, serum concentration data for antidepressants were collected from the two largest TDM services for psychotropic drugs in Norway (i.e. Department of Clinical Pharmacology at St. Olav University Hospital in Trondheim, and Center for Psychopharmacology at Diakonhjemmet Hospital in Oslo). […] The antidepressant TDM data contain serum concentration measurements taken in a naturalistic setting from psychiatry inpatients and outpatients. In addition to measured serum concentrations, the databases contain information obtained from the requisition forms, such as the prescribed antidepressant dose, time of last drug intake, time of blood sampling, and types and doses of concomitant drugs.
First, a combined laboratory TDM file was created, containing all serum concentration measurements (for any drug) in the period October 1999 –December 2011 for all women of reproductive age (i.e. born 1950–2000). […] Using the unique 11-digit identification number assigned to all individuals living in Norway, the MBRN could identify all pregnant women in the TDM data set. […] For the current study we retrieved the following information: the personal identification number, the drug analysed, the measured drug serum concentration, time of last dose, time of sampling, drug dose, concomitant drug use, other clinical information, name of the responsible physician, gestational week at the time of sampling (calculated from the sampling date and the pregnancy onset date as determined by obstetric ultrasound if available, or by last menstruation), and date of delivery.
If the requisition form lacked information on drug dose the authors contacted the responsible physician, who attempted to obtain this information from the medical record. If we were unable to retrieve this information, the analysis was excluded.
Having identified the pregnant women and their individual pregnancy periods in the extracted data file, we used the original TDM databases to retrieve serum concentration measurements before and after pregnancy from the same women, to serve as baseline observations for each of the included subjects. […] These analyses were not used in the statistical model, only for visual comparison. The remaining 420 analyses were used for the statistical comparisons.
Since multiple measurements were available from the same patient a linear mixed model was used. […] Baseline measurements were set to gestational week 0 in the model. Then, the effect of gestational week on concentration compared to baseline could be estimated for each drug.
Data are presented as means with 95% confidence intervals.

[5] = Previous studies of antidepressant plasma/serum concentrations in pregnancy (literature quoted in the Discussion); format: in vivo, human; conditions: 0.3 ng/mL per gestational week applied to this study's data

Structure (SMILES) | Change from baseline conc., Estimate (parent compound or metabolite) [1] | Baseline conc., Estimate (parent compound or metabolite) [1] | Loge serum concentration, Intercept estimate (parent compound or metabolite) [1] | Loge serum concentration, Change per gestational week estimate (parent compound or metabolite) [1] | Change of parent compound or metabolite serum concentration in pregnancy (in words) [1] | Loge PMR, Intercept estimate [1] | Loge PMR, Change per gestational week estimate [1] | Parent compound / metabolite ratio (PMR), change from baseline, estimate [1] | Parent compound / metabolite ratio (PMR), baseline estimate [1] | Parent compound / metabolite ratio (PMR), third trimester estimate [1] | Change of serum concentration in pregnancy compared to baseline (in words) ([4]; dose-adjusted) | also measured
CNCCCC1(c2ccc(F)cc2)OCc2cc(C#N)ccc21 (stereo not drawn) [Desmethylcitalopram] | -33% | 12.6 ng/mL | 2.534 | -0.012 |  |  |  |  |  |  |  | 
CN(C)CC(c1ccc(O)cc1)C1(O)CCCCC1 (stereo not drawn) [O-desmethylvenlafaxine] | -13% | 91.5 ng/mL | 4.516 | -0.004 | did not change |  |  |  |  |  |  | Change of metabolite levels in pregnancy (in words) ([2]; prospective study of seven pregnancies): no change
CNCCCC1(c2ccc(F)cc2)OCc2cc(C#N)ccc21 (stereo not drawn) [Desmethylescitalopram] |  |  |  |  |  |  |  |  |  |  |  | Loge serum concentration, Change per gestational week estimate (parent compound or metabolite) [3]: -0.004
COc1ccc(C(CN(C)C)C2(O)CCCCC2)cc1 (stereo not drawn) [Venlafaxine] | -40% | 35.8 ng/mL | 3.577 | -0.015 | trend towards a statistically significant decline | -0.927 | -0.011 |  |  |  | remain largely unchanged | Change of serum concentration in pregnancy compared to baseline (in words) ([4]; dose-adjusted, listed as venlafaxine): did not change significantly; also recorded: not statistically significant; Reduction in plasma levels in pregnancy compared to baseline ([2]; case report, ref Klier et al. [16]): more than 50%; Reduction in levels in pregnancy ([2]; prospective study of seven pregnancies, ref ter Horst et al. [24]): 13%
CNCC[C@H](Oc1ccc(C(F)(F)F)cc1)c1ccccc1 [S-fluoxetine] |  |  |  |  |  |  |  |  |  |  |  | Enantiomer concentration change in pregnancy, chiral analysis (in words) ([2]; in vivo): declined more than R-fluoxetine
CN(C)CCC[C@@]1(c2ccc(F)cc2)OCc2cc(C#N)ccc21 [Escitalopram] | +24% | 8.4 ng/mL | 2.129 | 0.006 |  | 0.581 | 0.010 | +40% | 1.8 | 2.5 | did not change significantly; also recorded: not statistically significant; also recorded: remain largely unchanged; also recorded: close to zero | concentration at 4 gestational week ([4]; female, human, serum, 10 mg/day, one analysis in week 4, dose-adjusted, read-out: Observed serum concentration, outlier not shown in Fig 2): 36 ng/mL; concentration at 5 gestational week ([4]; female, human, serum, 10 mg/day, one analysis in week 5, dose-adjusted, read-out: Observed serum concentration, outlier not shown in Fig 2): 40 ng/mL; Observed serum concentration, outlier not shown in Fig 2 ([4]; one analysis in week 0 (baseline), dose-adjusted): 36 ng/mL; Change of concentrations throughout pregnancy (in words) ([2]; five pregnancies, ref Sit et al. [19]): only minor declines or no change; Parent compound / metabolite ratio (PMR), change from baseline, estimate ([1]; listed as escitalopram): 40%
COCCCC/C(=N\OCCN)c1ccc(C(F)(F)F)cc1 [Fluvoxamine] |  |  |  |  |  |  |  |  |  |  |  | Serum concentration in pregnancy as share of pre-pregnancy levels [4]: about 50%; Serum concentration in third trimester lower than baseline (reduction) [4]: 56%
CN(C)CCCC1(c2ccc(F)cc2)OCc2cc(C#N)ccc21 (stereo not drawn) [Citalopram] | -39% | 32.3 ng/mL | 3.475 | -0.015 |  | 0.973 | -0.004 | -13% | 2.6 | 2.3 | remain largely unchanged | Serum concentration in third trimester lower than baseline (reduction) [4]: 24%; Third trimester concentrations lower than baseline values ([2]; 11 pregnancies, ref Heikkinen et al. [13]): 42%; Third trimester concentrations lower than baseline ([2]; two pregnancies, ref Sit et al. [19]): 26%; Change of parent compound / metabolite ratio in pregnancy (in words) ([1]; third trimester vs baseline): did not reach statistical significance
Fc1ccc([C@@H]2CCNC[C@H]2COc2ccc3c(c2)OCO3)cc1 [Paroxetine] |  |  |  |  |  |  |  |  |  |  |  | Serum concentration in pregnancy as share of pre-pregnancy levels [4]: about 50%; Serum concentration in third trimester lower than baseline (reduction) [4]: 51%; Reduction in week 34 to which the cited decline per week translates for the present data [5]: 30%; Concentrations in third trimester compared to postpartum (in words) ([2]; 12 pregnancies, no numbers provided, ref Brogtrop et al. [17]): lower concentrations in the third trimester compared to postpartum; Increase of maternal plasma concentration per gestational week ([2]; intermediate and poor CYP2D6 metabolizers): 0.6 ng/mL per gestational week; Decline of maternal plasma concentration per gestational week ([2]; ultrarapid or extensive CYP2D6 metabolizers, 74 pregnancies, ref Ververs et al. [20]): 0.3 ng/mL per gestational week

Further lines, with some results ahead:

Change from baseline conc., Estimate (parent compound or metabolite) [1] | Baseline conc., Estimate (parent compound or metabolite) [1] | Loge serum concentration, Intercept estimate (parent compound or metabolite) [1] | Loge serum concentration, Change per gestational week estimate (parent compound or metabolite) [1] | Change of parent compound or metabolite serum concentration in pregnancy (in words) [1] | Loge PMR, Intercept estimate [1] | Loge PMR, Change per gestational week estimate [1] | Parent compound / metabolite ratio (PMR), change from baseline, estimate [1] | Parent compound / metabolite ratio (PMR), baseline estimate [1] | Parent compound / metabolite ratio (PMR), third trimester estimate [1] | Structure (SMILES) | Change of serum concentration in pregnancy compared to baseline (in words) ([4]; dose-adjusted) | also measured
+83% | 8.6 ng/mL | 2.147 | 0.018 | increasing levels | -0.764 | -0.006 | -20% | 0.5 | 0.4 | CN[C@H]1CC[C@@H](c2ccc(Cl)c(Cl)c2)c2ccccc21 [Sertraline] | statistically significant increase | Change of concentrations in pregnancy in previous studies (in words) ([2]; eight and six pregnancies): variable/non-significant observations; Parent compound / metabolite ratio in mid third trimester lower than baseline [1]: 20%
+120% | 18.4 ng/mL | 2.914 | 0.023 | increasing levels |  |  |  |  |  | N[C@H]1CC[C@@H](c2ccc(Cl)c(Cl)c2)c2ccccc21 [Desmethylsertraline] |  | 
0% | 83.7 ng/mL | 4.427 | 0.000 | remain largely unchanged |  |  |  |  |  | NCCC(Oc1ccc(C(F)(F)F)cc1)c1ccccc1 (stereo not drawn) [Norfluoxetine] |  | 
-31% | 77.7 ng/mL | 4.353 | -0.011 | decline | -0.045 | -0.013 | -36% | 1.0 | 0.6 | CNCCC(Oc1ccc(C(F)(F)F)cc1)c1ccccc1 (stereo not drawn) [Fluoxetine] | did not change significantly; also recorded: not statistically significant; also recorded: remain largely unchanged; also recorded: no major decline | Third trimester concentrations of the active moiety lower than baseline ([2]; fluoxetine plus norfluoxetine, 11 pregnancies, ref Heikkinen et al.): 32%; Parent compound / metabolite ratio in mid third trimester lower than baseline [1]: 36%
